{"source": "patent US11369618B2", "about": "“Compounds, compositions and methods for prevention and/or treatment of cancer” (THE TRUSTEES OF THE UNIVERSITY OF PENNSYLVANIA, priority 2016, dated 2022)", "key": {"normal human melanocytes": {"system": "normal human melanocytes", "test": "differentiation of normal human melanocytes after continuous or transient hormone exposure (melanin, RNAseq, Western blot)", "format": "cell-based", "conditions": "normal human melanocytes, hormone or agonist exposure", "procedure": "FIG. 11A: Long-term melanin assay in which normal human melanocytes were transiently treated with progesterone (P4), or estrogen (E2). Subsets of these groups (Red) were treated with an additional transient pulse of P4 at Day 27. Error bars equal the standard deviation of the samples. FIG. 11B: Western blot of melanocyte differentiation markers after a transient, 4-day treatment with either vehicle or estrogen, followed by an 8 day withdraw period. FIG. 11C: Experimental timeline of estrogen or GPER agonist (G-1) pre-treatment of mouse and human melanoma cells, n=5 per group. FIG. 11D: Relative tumor weights of mouse and human melanomas pre-treated with estrogen, * denotes significance by the Mann-Whitney test. FIG. 11E: Relative tumor weights of mouse and human melanomas pre-treated with G-1, * denotes significance by the Mann-Whitney test.\nNormal human melanocytes received a pulse-treatment of estrogen—this consisted of 4 days of estrogen treatment followed by an 8 day withdraw.\nTo test whether pregnancy-associated hormones induce long-lasting changes in melanocyte differentiation that may affect their future susceptibility to transformation, primary human melanocytes were transiently exposed to estrogen or progesterone (FIGS. 11A-11E).\nA subset of cells differentiated by transient exposure to estrogen was subsequently treated with progesterone."}, "[1]": {"system": "pRB, c-myc and GPER in WM46 melanoma cells", "test": "Western blot of WM46 melanoma cells treated with increasing doses of G-1", "format": "cell-based, human", "conditions": "WM46, increasing concentrations"}, "B16F10 melanoma": {"system": "B16F10 melanoma", "test": "B16F10 melanoma-bearing syngeneic mice treated with subcutaneous G-1, αPD-1 antibody, or both", "format": "in vivo", "description": "(§1) FIGS. 14A-14F illustrate the finding that treatment of melanoma bearing mice with G-1 and αPD-1 immunotherapy dramatically extends survival. FIG. 14A: Experimental timeline of B16F10 bearing mice treated with vehicle or G-1, as well as αPD-1 antibody or isotype antibody control (2A3), n=10 per group. FIG. 14B: Tumor volumes of treatment groups at Day 14, * denotes significance One-way ANOVA with Tukey's multiple comparison test. FIG. 14C: Survival curve of mice treated with vehicle or G-1, as well as isotype antibody control (2A3) or αPD-1 antibody. FIG. 14D: Experimental outline of YUMM1.7 bearing mice treated with vehicle or G-1, as well as isotype antibody control (2A3) or αPD-1 antibody. Treatment was started at day 14 after tumors reached 4-5 mm in diameter. n=5 per group. FIG. 14E: Tumor volumes over time of treatment groups. FIG. 14F: Survival curve of mice treated with vehicle or G-1, as well as αPD-1 antibody or isotype antibody control (2A3).\nTo determine whether G-1 has therapeutic utility as a systemically delivered agent with or without immune checkpoint inhibitors, B16F10 melanoma-bearing syngeneic mice were treated with subcutaneous G-1, αPD-1 antibody, or both, and survival compared to matched mice treated with vehicle and isotype antibody controls (in particular, non-specific isotype control antibody 2A3) (FIG. 14A). Total tumor volume was assessed after 5-50 days."}, "[2]": {"system": "YUMM 1.7 cells (BRafV600E/wt Pten−/−Cdkn2−/−)", "test": "YUMM 1.7 melanoma in C57BL/6 mice treated with G-1 with and without αPD-1", "format": "in vivo, mouse", "conditions": "YUMM 1.7, treatment initiated at day 14", "description": "as §1\nAlthough B16F10 melanoma is the most commonly used model for melanoma immunology studies, and experimental results have largely translated to humans, B16F10 lacks the BRaf or NRas oncodriver mutations present in most human melanomas. […]"}, "B16F10 melanoma cells": {"system": "B16F10 melanoma cells", "test": "melanoma cells treated with G-1, HDACi, or in combination (Western blot, B16F10 proliferation assay)", "format": "cell-based", "description": "FIG. 16B: Western blot of p-RB, c-Myc, and H3K56ac in melanoma cells after treatment with G-1, HDACi, or in combination. FIG. 16C: Proliferation assay of B16F10 melanoma cells after treatment with G-1, HDACi, or in combination.\nHistone acetyl marks are removed by several histone deacetylases (HDACs), which are aberrantly regulated in many cancers. Although HDAC inhibitors are approved as anticancer agents for cutaneous lymphoma, myeloma, and […], their utility in melanoma is unclear. […] HDAC efficacy may have been limited by the fact that trials were conducted without a differentiation driver to promote formation of acetylation marks on histones or other critical oncoproteins (such as c-Myc) that would then be stabilized by the HDACi. Without wishing to be limited by any theory, the anticancer effects of HDAC inhibitors can be potentiated by combination drug regimens that also promote histone acetylation at functionally critical sites. HDACi and GPER agonists independently promote melanoma cell differentiation, and also cooperate to potentiate the activity of each other (FIGS. 16B-16C)."}, "LLC1 tumors": {"system": "LLC1 tumors", "test": "LLC1 tumor bearing mice treated with subcutaneous G-1, αPD-1 antibody, or both", "format": "in vivo, mouse", "procedure": "FIGS. 18A-18G illustrate the finding that GPER signaling reduces NSCLC cell proliferation in vitro and in vivo and has combinatorial effects with αPD-1 immunotherapy. FIG. 18A: Western blot for pCREB of LLC1 cells treated with 500 nM G-1 for 30 minutes. FIG. 18B: Proliferation assay of LLC1 treated with 500 nM G-1 for 6 days. FIG. 18C: Western blot for c-Myc of LLC1 cells treated with 500 nM G-1 for 6 days. FIG. 18D: Western blot for c-Myc of LLC1 cells treated with 500 nM G-1 over a time-course. […] FIG. 18F: Tumor volumes over time of LLC1 tumor bearing mice treated with vehicle or G-1, as well as αPD-1 antibody or isotype antibody control (2A3). FIG. 18G: Survival curve of mice treated with vehicle or G-1, as well as αPD-1 antibody or isotype antibody control (2A3).\nTo test whether G-1 had activity in vivo and synergizes with PD-1 immunotherapy, LLC1 tumors were grown in mice that were treated with subcutaneous G-1, αPD-1 antibody, or both, and survival compared to matched mice treated with vehicle and isotype antibody controls."}}, "data": [{"smiles": "CC(=O)c1ccc2c(c1)[C@@H]1C=CC[C@@H]1[C@H](c1cc3c(cc1Br)OCO3)N2", "note": "(relative stereo) [Compound G-1, rel-1-[4-(6-bromo-1,3-benzodioxol-5-yl)-3aR,4S,5,9bS-tetrahydro-3H-cyclopenta[c]quinolin-8-yl]-ethanone]", "values": [{"measurement": "melanocyte differentiation state (melanin pigment production)", "setting": "normal human melanocytes", "result": "increase the differentiation state of human melanocytes"}, {"measurement": "GPER expression", "setting": "[1]", "result": "elevation"}, {"measurement": "c-myc levels", "setting": "[1]", "result": "reduction"}, {"measurement": "pRB levels", "setting": "[1]", "result": "reduction"}, {"measurement": "tumor growth", "setting": "B16F10 melanoma; B16F10-bearing mice", "result": "slowed tumor growth"}, {"measurement": "survival", "setting": "B16F10 melanoma; B16F10-bearing mice, subcutaneous G-1", "result": "extended survival to the same extent as αPD-1"}, {"measurement": "tolerability", "setting": "B16F10 melanoma; mice", "result": "well tolerated"}, {"measurement": "survival", "setting": "[2]", "result": "modest, but significant, survival increases"}, {"measurement": "combined effect of G-1 and HDACi in melanoma cells", "setting": "B16F10 melanoma cells", "result": "synergizes with HDAC inhibitors"}, {"measurement": "survival", "setting": "LLC1 tumors", "result": "did not alter survival significantly"}, {"measurement": "tumor growth", "setting": "LLC1 tumors", "result": "slowed tumor growth initially"}]}]}
